# Measurements: ChEMBL document CHEMBL1201862, “PubChem BioAssay data set” (2004)
# Activity calls are given as the source filed them.
# What was measured:
# [1] = biological target: Peroxisome proliferator-activated receptor gamma/Nuclear receptor coactivator 2 (Homo sapiens, UniProt P37231); type: functional;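 note: agonist potency for raising coactivator recruitment to the receptor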
# [2] = viability of HCT116 lacking mutant beta-catenin – cell-based, human colon tumor, dose response (AID 1045); type: functional;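 note: HCT116 colon tumor cells with beta catenin knocked out; cells exposed to compound for 60 hours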
# [3] = biological target: Peroxisome proliferator-activated receptor gamma/Nuclear receptor coactivator 1 (Homo sapiens, UniProt P37231); type: functional;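 note: agonist potency as compounds enhance coactivator SRC-1 recruitment to PPARgamma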
# [4] = biological target: Peroxisome proliferator-activated receptor gamma/Nuclear receptor coactivator 3 (Homo sapiens, UniProt P37231); type: functional;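 note: agonist potency for raising coactivator recruitment to the receptor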
# [5] = viability of PTEN-deleted HCT116 cells – cell-based, HCT116 PTEN knockout, dose response (AID 1047); type: functional;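 note: HCT116 colon tumor cells with PTEN knocked out; cells exposed to compound for 60 hours before readout; potency for loss of cell viability measured by luminescence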
# [6] = biological target: T1, Beta-2 adrenergic receptor (Homo sapiens, UniProt P07550); test: Dose response for HTS for Beta-2AR agonists via FAP method from Powderset3.; type: functional
# T1 sequence (P07550 whole entry): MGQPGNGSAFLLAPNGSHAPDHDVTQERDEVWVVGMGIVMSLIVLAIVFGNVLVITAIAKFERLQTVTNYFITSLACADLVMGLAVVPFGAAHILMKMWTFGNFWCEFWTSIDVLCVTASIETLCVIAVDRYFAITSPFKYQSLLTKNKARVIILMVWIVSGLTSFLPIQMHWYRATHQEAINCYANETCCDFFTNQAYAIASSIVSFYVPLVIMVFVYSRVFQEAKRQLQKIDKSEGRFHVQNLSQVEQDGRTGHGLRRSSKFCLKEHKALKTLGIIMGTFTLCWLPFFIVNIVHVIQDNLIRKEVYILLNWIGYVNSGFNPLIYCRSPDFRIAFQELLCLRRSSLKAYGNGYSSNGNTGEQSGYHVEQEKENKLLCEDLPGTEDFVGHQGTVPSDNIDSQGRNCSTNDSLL
# [7] = biological target: T1, Beta-2 adrenergic receptor; test: ADRB2 activation measured by internalization – cell-based, FAP fluorogen, flow cytometry, cherry pick 1, dose response (AID 588763); type: functional
# [8] = tested on: Cryptococcus neoformans; test: PubChem AID 686997; type: functional, organism-based
# [9] = tested on: HeLa; test: viability loss in HeLa cells – cell-based, ATP luminescence, cherry-pick samples, cytotoxicity control, dose response (AID 687004); type: functional; conditions: Homo sapiens
# [10] = tested on: HepG2; test: HepG2 Cytotoxicity Assay Measured in Cell-Based System Using Plate Reader - 7071-02_Inhibitor_Dose_CherryPick_Activity.; type: functional; conditions: Homo sapiens
# [11] = biological target: Arf-GAP with SH3 domain, ANK repeat and PH domain-containing protein 1 (Homo sapiens, UniProt Q9ULH1); type: functional;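 note: biochemical fluorescence polarization dose–response screen measuring inhibition of ASAP1; ASAP1 GAP domain stimulating GTP hydrolysis by truncated human ARF1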
# Arf-GAP with SH3 domain, ANK repeat and PH domain-containing protein 1, sequence (Q9ULH1 whole entry, the tested form may be a part): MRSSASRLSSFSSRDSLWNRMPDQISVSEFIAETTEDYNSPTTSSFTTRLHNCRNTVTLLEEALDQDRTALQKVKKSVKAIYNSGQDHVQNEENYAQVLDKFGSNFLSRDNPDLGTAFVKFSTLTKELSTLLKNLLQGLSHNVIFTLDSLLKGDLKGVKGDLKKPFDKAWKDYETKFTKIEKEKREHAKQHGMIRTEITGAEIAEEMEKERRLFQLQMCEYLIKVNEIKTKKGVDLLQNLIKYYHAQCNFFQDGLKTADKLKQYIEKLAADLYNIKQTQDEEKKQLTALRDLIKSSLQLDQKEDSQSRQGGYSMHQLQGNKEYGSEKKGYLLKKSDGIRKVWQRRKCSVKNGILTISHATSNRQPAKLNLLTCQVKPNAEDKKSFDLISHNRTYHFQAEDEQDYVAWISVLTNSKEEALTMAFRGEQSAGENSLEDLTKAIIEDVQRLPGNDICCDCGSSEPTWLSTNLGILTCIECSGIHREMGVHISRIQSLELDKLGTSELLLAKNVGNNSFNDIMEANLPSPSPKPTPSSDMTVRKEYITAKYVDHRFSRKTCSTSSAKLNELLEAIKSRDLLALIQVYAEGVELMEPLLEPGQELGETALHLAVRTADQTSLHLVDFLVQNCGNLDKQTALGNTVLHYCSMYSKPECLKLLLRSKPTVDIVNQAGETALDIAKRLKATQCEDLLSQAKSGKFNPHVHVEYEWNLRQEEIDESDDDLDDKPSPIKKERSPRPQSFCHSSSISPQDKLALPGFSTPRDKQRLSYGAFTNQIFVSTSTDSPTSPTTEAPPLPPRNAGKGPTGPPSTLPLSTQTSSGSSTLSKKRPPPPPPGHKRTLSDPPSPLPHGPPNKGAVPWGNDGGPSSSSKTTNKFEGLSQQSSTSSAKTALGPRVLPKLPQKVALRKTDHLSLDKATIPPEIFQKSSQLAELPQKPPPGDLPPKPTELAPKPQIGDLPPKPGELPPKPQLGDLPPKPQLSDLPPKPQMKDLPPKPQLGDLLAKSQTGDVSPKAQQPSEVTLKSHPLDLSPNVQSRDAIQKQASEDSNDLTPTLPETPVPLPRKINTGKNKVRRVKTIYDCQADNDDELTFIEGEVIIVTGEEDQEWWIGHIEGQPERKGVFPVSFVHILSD
# [12] = biological target: T2, Rac GTPase-activating protein 1 (Homo sapiens, UniProt Q9H0H5); test: blockers of MgcRacGAP-driven Rac1 GTP hydrolysis – biochemical, ADP Hunter fluorescence, primary and confirmatory, confirmation (AID 624330); type: functional
# T2 sequence (Q9H0H5 whole entry): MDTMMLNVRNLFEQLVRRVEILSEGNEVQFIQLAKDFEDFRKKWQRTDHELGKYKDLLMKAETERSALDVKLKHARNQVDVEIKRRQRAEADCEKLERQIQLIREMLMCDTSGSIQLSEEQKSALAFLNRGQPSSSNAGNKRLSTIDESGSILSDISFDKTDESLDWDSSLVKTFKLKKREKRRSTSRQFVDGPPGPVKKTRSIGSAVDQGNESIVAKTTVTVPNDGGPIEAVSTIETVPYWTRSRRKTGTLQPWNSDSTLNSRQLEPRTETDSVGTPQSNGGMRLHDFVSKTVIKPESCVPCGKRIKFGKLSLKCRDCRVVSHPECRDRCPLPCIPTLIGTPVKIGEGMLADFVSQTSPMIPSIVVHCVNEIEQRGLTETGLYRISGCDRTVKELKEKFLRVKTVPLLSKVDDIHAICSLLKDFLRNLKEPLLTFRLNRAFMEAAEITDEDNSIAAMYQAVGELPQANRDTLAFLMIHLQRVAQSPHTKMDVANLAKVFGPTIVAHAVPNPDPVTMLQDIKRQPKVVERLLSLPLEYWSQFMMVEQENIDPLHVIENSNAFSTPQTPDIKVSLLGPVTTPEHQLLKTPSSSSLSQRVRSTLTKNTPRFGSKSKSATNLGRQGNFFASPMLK
# [13] = biological target: ATP-dependent translocase ABCB1 (Homo sapiens, UniProt P08183); test: inhibition of P-gp mediated JC-1 efflux – Jurkat-DNR cells, flow cytometry, dose response (AID 1689); type: functional
# [14] = biological target: Broad substrate specificity ATP-binding cassette transporter ABCG2 (Homo sapiens, UniProt Q9UNQ0); test: blockers of JC-1 export by ABCG2 – Ig-MXP3 cells, flow cytometry, dose response (AID 1690); type: functional
# Broad substrate specificity ATP-binding cassette transporter ABCG2, sequence (Q9UNQ0 whole entry): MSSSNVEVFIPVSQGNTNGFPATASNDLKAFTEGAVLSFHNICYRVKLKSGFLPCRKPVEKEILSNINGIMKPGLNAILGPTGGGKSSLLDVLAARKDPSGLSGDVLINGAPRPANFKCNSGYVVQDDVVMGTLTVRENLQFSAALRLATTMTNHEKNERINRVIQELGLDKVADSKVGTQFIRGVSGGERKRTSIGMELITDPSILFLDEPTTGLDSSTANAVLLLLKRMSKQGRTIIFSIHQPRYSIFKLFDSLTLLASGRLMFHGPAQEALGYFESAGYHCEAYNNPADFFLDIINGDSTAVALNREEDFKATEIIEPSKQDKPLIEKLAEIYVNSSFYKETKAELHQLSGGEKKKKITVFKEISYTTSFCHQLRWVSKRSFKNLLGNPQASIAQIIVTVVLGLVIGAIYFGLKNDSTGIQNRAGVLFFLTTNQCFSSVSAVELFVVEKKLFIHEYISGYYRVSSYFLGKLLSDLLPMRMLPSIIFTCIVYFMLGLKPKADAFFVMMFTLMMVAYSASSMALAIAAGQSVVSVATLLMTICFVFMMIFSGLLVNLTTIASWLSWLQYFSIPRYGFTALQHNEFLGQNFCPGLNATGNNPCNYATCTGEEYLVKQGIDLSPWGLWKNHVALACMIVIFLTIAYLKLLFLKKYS
# [15] = tested on: A549; test: viability loss in A549 cells – cell-based, plate reader, cherry-pick samples, cytotoxicity control, dose response (AID 687028); type: functional; conditions: Homo sapiens
# [16] = biological target: T3, Scavenger receptor class B member 1 (Mus musculus, UniProt Q61009); test: blockers of DiI-HDL lipid transfer via SR-BI – cell-based, ldlA[mSR-BI] CHO, DiI fluorescence, dry powder, set 10, dose response (AID 624029); type: functional
# T3 sequence (Q61009 whole entry): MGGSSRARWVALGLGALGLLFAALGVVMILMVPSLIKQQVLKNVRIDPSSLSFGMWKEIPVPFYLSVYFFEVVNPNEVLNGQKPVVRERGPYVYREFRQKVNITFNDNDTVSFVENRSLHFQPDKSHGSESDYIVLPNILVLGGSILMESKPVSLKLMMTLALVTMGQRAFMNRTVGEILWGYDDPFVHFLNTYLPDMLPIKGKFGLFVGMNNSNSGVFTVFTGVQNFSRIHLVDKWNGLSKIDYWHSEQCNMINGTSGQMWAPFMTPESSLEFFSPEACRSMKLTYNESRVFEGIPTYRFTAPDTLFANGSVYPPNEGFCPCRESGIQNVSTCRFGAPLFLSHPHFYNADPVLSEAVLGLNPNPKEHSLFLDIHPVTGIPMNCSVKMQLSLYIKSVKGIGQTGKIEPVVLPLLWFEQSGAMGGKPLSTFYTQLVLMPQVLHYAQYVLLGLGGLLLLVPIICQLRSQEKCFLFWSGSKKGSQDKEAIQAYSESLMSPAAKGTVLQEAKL
# [17] = biological target: T3, Scavenger receptor class B member 1; test: mouse SR-BI DiI-HDL transfer blockers – ldlA[mSR-BI] CHO cells, fluorescence plate reader, dry powder, set 9, dose response (AID 623880); type: functional, cell-based
# Peroxisome proliferator-activated receptor gamma/Nuclear receptor coactivator 2, sequence (P37231 whole entry): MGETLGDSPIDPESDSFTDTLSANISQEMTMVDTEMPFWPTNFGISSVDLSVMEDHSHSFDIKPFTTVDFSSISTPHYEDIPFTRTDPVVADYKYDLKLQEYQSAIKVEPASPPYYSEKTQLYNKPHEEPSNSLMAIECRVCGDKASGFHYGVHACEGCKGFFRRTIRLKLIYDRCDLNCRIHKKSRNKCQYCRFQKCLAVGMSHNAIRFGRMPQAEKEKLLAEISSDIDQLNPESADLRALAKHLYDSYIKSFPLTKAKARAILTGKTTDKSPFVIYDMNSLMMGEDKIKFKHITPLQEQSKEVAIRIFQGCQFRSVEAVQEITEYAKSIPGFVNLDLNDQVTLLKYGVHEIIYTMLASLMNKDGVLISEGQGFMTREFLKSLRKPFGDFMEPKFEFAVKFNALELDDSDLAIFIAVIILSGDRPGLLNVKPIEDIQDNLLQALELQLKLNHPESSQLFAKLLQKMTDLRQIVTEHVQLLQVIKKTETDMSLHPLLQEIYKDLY
# Peroxisome proliferator-activated receptor gamma/Nuclear receptor coactivator 2, sequence (Q15596 whole entry, further chain): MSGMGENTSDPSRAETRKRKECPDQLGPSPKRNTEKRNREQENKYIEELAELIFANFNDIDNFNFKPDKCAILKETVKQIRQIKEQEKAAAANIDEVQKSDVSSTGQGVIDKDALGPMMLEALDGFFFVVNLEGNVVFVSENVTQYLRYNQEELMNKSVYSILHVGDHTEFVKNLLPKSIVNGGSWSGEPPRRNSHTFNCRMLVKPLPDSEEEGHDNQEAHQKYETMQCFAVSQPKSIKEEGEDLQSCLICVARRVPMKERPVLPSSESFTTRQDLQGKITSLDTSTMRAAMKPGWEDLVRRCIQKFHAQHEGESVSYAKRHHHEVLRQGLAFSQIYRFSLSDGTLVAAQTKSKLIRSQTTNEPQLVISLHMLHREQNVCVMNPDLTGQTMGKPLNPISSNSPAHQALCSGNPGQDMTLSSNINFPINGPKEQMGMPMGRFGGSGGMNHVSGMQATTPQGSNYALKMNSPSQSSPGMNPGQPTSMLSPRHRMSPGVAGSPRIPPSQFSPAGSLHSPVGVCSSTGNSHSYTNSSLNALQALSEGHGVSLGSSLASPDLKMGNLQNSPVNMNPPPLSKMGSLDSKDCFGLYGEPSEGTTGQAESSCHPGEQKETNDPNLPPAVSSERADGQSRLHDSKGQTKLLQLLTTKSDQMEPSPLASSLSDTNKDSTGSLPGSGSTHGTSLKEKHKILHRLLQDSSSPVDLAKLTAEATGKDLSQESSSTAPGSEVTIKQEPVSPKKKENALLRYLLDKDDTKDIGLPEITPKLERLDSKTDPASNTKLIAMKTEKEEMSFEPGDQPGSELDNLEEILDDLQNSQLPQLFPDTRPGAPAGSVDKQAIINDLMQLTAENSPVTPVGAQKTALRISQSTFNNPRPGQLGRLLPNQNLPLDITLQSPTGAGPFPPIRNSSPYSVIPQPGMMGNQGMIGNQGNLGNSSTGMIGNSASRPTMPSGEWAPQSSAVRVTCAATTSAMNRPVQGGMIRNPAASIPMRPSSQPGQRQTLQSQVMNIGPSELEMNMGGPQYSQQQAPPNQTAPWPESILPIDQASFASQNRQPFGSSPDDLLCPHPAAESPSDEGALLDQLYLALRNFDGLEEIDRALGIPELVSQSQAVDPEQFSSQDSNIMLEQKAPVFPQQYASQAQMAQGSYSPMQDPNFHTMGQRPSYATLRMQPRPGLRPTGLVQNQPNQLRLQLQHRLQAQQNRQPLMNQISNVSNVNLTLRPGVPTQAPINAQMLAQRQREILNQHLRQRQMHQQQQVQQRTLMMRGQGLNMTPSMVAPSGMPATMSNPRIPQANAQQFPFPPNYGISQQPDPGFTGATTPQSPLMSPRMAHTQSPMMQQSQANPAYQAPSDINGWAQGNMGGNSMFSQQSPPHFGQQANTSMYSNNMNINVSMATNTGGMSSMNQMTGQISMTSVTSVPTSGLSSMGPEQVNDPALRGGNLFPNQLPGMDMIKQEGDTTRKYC
structure (smiles),measurement,setting,value
CC(C)Cc1nc2sc3c(NCc4ccco4)ncnc3c2c2c1COC(C)(C)C2,EC50,[1],> 79.4 µM (not active)
same,EC50,[2],14 µM (active)
same,EC50,[3],> 79.4 µM (not active)
same,EC50,[4],> 79.4 µM (not active)
same,EC50,[5],14.3 µM (active)
same,EC50,[6],0.0238 µM (active)
same,EC50,[7],0.615 µM (active)
CCOC(=O)NC(=S)Nc1ccc(C(C)(C)C)cc1Br,AC50,[8],> 70 µM (inactive)
same,AC50,[9],> 52 µM (inactive)
same,AC50,[10],18.1 µM (active)
COc1ccc(-n2nnc3c(=O)n(CC(=O)Nc4ccc5c(c4)OCCO5)cnc32)cc1OC,IC50,[11],11.8 µM (inactive)
COc1cc(C(=O)N/N=C/c2ccc(OC)c(CN3CCN(c4ccc(F)cc4)CC3)c2)ccc1O,IC50,[12],83.3 µM (active)
same,EC50,[13],0.165 µM (active)
same,EC50,[14],0.76 µM (inactive)
COc1ccc2c3c([nH]c2c1)[C@H](CO)N(C(=O)c1ccccc1)CC31CN(S(=O)(=O)c2cccs2)C1,AC50,[15],26 µM (active)
C[C@@H]1CN([C@H](C)CO)C(=O)c2cc(NC(=O)C3CCCCC3)ccc2O[C@H]1CN(C)S(=O)(=O)c1ccccc1Cl,AC50,[16],0.202 µM (active)
same,AC50,[17],0.176 µM (active)
